The source of these data is patent US20030199424A1, “Method of treatment and/or prophylaxis” (priority 2002, published 2003).

Structures are written as SMILES. Read-outs that look alike come from different tables or passages of the source.

The subject of test [1] is non-diabetic rats. Briefly: Opioid-mediated antinociception (Von Frey, % MPE) in non-diabetic control rats. Type of test: in vivo, rat. The note with it: for ED50: Rattus norvegicus. The procedure: A second group of STZ-diabetic rats received vehicle (DMSO:water 10:90) by oral gavage (protocol-control rats). In the third group, weight-matched, naive, non-diabetic control rats (non-diabetic candesartan control rats) were also treated with candesartan for one wk prior to opioid antinociceptive testing to determine any intrinsic effects of candesartan on baseline pain scores and on opioid-mediated antinociception.
The statistical significance criterion was p<0.05.

The subject of test [2] is STZ-diabetic rats. Description: Opioid-mediated antinociception (Von Frey, % MPE) in STZ-diabetic rats. Particulars: for ED50: Rattus norvegicus, read-out: mean (±SEM) ED50 of s.c. morphine; for timing of the peak antinociceptive effect: morphine 6.1 mg/kg s.c., control STZ-diabetic rats; for time to reach peak levels of antinociception: s.c. morphine, high-dose oral candesartan-treated STZ-diabetic rats.
Description: In all cases, opioids were administered by a single s.c. injection (100 μL) into the dorsal region at the base of the neck whilst under light CO2/O2 (50:50%) anaesthesia using a 250 μL Hamilton syringe. […] By contrast, the opioid-naïve, weight-matched, non-diabetic candesartan control rats were given high-dose oral candesartan (2 mg/kg/day) for 7 days before opioid testing was initiated.
Immediately prior to administration of s.c. bolus doses of either opioid, baseline paw withdrawal thresholds were quantified using VFFs in an identical manner to the weekly baseline Von Frey monitoring described above. Following s.c. opioid administration, VFF assessments were performed at the following post-dosing times: 15, 30, 45, 60, 90, 120 and 180 min.
The VFF scores for individual rats were converted to the Percentage of the Maximum Possible Antinociceptive Effect (% MPE), according the following formula (Brady & Holtzmann, 1982): [formula]
The mean (±SEM) percentage maximum AUC (% Max AUC) was calculated according to the following formula: [formula]
ED50 estimation was facilitated by inclusion of the theoretical maximum and minimum % Max AUC values. The Mann-Whitney test was used to compare %MPE AUC ED50 values between treatment groups. The statistical significance criterion was p<0.05.

Test [3] relates to non-diabetic rats. Particulars: control non-diabetic rats; previously determined by Saini (2000); cited from earlier work.
The test system of test [4] is STZ-diabetic rats. Particulars: cited from earlier work.

For `CN1CC[C@]23c4c5ccc(O)c4O[C@H]2[C@@H](O)C=C[C@H]3[C@H]1C5` [morphine], the ED50 (commonly the dose that gives a 50% effect, or the effect in half of the subjects) came to 2.3 ± 0.3 mg/kg in test [1] (read-out: ED50 of s.c. morphine, non-diabetic rats on high-dose oral candesartan 2.0 mg/kg/day); 2.9 mg/kg in test [1] (sc, read-out: mean (±SEM) ED50 of s.c. morphine, control untreated non-diabetic rats); 2.5 mg/kg in test [2] (504 h); 2.3 mg/kg in test [2] (1512 h); 2.1 mg/kg in test [2] (2016 h); 2.4 mg/kg in test [2] (4032 h). The “time to achieve the peak antinociceptive effect” value is 45 min in test [1] (morphine 2.4 mg/kg s.c., control non-diabetic rats) and 60 min in test [2] (morphine 2.4 mg/kg s.c., STZ-diabetic rats 24 wks post-STZ, oral candesartan 2.0 mg/kg/day). Besides, in test [2] (control STZ-diabetic rats of the present studies, 12 wks post-STZ and beyond), the “antinociceptive response evoked by morphine” value is reported as “marked decrease”. In addition, the “timing of the peak antinociceptive effect” value in test [2] (3 wks post-STZ) is on record as “approximately 45 min”; in test [2] (9 wks post-STZ), 60 min. Also, the “time to reach peak levels of antinociception” value in test [2] (3 wks post-STZ) was determined as 45 min; in test [2] (beyond 12 wks post-STZ), 60 min. Moreover, the “ED50 of s.c. morphine (single bolus dose)” value in test [3] is given as roughly 2.4 mg/kg. The antinociceptive efficacy result in test [4] (s.c. morphine, control STZ-diabetic rats by 12 wks post-STZ (Smith et al., 2001)) is reported as “completely abolished”. The ED50 morphine dose in test [4] (s.c., STZ-diabetic rats at 3 and 9 wks post-STZ, previously determined by Smith et al. (2001)) is 6.1 mg/kg.
